Measured values taken from patent US12503436B2, “Compounds and compositions for treating conditions associated with STING activity” (NOVARTIS PHARMA AG, priority 2021, dated 2025).

Molecular target: STING (Homo sapiens, UniProt Q86WV6, G230A/H232R/R293Q/R71H)
Assay: STING reporter assay in THP1-Dual KO-IFNAR2 cells (2′3′cGAMP stimulation, luciferase reporter)
Assay type: cell-based
Conditions: 15 μM 2′3′cGAMP stimulation, 24 h, read-out: Pharmaron, THP1_IFNAR2 STING 24 h Luci Normalized: GeoMean EC50
How it was run: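 EC50 from secreted luciferase (QUANTI-Luc Plus luminescence of supernatant) after 24 h at 37 °C, 5% CO2. Cells: THP1-Dual KO-IFNAR2, treated with compound (0.0017-100 μM final) plus lipofected 2′3′cGAMP at 15 μM final.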

STING, sequence (Q86WV6 whole entry R71H/G230A/H232R/R293Q): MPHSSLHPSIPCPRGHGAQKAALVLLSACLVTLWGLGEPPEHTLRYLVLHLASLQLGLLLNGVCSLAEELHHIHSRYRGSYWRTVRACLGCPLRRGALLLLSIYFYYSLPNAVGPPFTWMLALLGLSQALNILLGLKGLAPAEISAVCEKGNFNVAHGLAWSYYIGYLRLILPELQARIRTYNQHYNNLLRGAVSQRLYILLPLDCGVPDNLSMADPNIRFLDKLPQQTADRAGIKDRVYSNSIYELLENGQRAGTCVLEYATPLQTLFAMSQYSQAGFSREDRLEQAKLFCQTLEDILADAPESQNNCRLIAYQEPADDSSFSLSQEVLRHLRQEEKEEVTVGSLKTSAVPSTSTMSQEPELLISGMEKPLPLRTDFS

Row | SMILES | EC50 [nM]
1 | O=C(Nc1c[nH]c2ccc(OCCc3ccc(C(F)(F)F)cc3)cc12)C1CCOCC1 [Compound 239, N-(5-(4-(trifluoromethyl)phenethoxy)-1H-indol-3-yl)tetrahydro-2H-pyran-4-carboxamide] | 40 to 200
2 | O=C(Nc1c[nH]c2ccc(OCCc3ccc(C(F)(F)F)cc3)cc12)C1CC1 [Compound 252, N-(5-(4-(trifluoromethyl)phenethoxy)-1H-indol-3-yl)cyclopropanecarboxamide] | 40 to 200
3 | O=C(Nc1c[nH]c2ccc(OCC[C@@H]3C[C@@H]4CN(CC(F)(F)F)C[C@@H]4C3)cc12)C1CC1(F)F (stereo partly drawn) [Compound 307, 2,2-difluoro-N-(5-(2-((3aR,5r,6aS)-2-(2,2,2-trifluoroethyl)octahydrocyclopenta[c]pyrrol-5-yl)ethoxy)-1H-indol-3-yl)cyclopropane-1-carboxamide] | 200 to 1000
4 | CC(=O)Nc1c[nH]c2c(Br)cc(CCOc3ccc(C(F)(F)F)cc3)cc12 [Compound 578, N-(7-bromo-5-(2-(4-(trifluoromethyl)phenoxy)ethyl)-1H-indol-3-yl)acetamide] | 1000 to 5000
5 | O=C(Nc1c[nH]c2ccc(OCc3ccc(C(F)(F)F)cc3)cc12)C1CCOCC1 [Compound 156, N-(5-{[4-(trifluoromethyl)phenyl]methoxy}-1H-indol-3-yl)oxane-4-carboxamide] | 200 to 1000
6 | COCCC(=O)Nc1c[nH]c2ccc(O[C@H]3C[C@H](c4ccc(C(F)(F)F)cc4)C3)cc12 [Compound 241, 3-methoxy-N-(5-((1r,3r)-3-(4-(trifluoromethyl)phenyl)cyclobutoxy)-1H-indol-3-yl)propanamide] | 40 to 200
7 | CC(=O)Nc1c[nH]c2ccc(COCc3ccc(C(F)(F)F)cc3)cc12 [Compound 111, N-(5-(((4-(trifluoromethyl)benzyl)oxy)methyl)-1H-indol-3-yl)acetamide] | 40 to 200
8 | O=C(Nc1c[nH]c2ccc(OCC[C@@H]3C[C@@H]4CN(CC(F)(F)F)C[C@@H]4C3)cc12)C1(C(F)(F)F)CC1 [Compound 366, N-(5-(2-((3aR,5r,6aS)-2-(2,2,2-trifluoroethyl)octahydrocyclopenta[c]pyrrol-5-yl)ethoxy)-1H-indol-3-yl)-1-(trifluoromethyl)cyclopropane-1-carboxamide] | 200 to 1000
9 | C[C@H]1OC[C@H]1C(=O)Nc1c[nH]c2ccc(OCC[C@@H]3C[C@@H]4CN(CC(F)(F)F)C[C@@H]4C3)cc12 [Compound 510, (2R,3R)-2-methyl-N-(5-(2-((3aR,5r,6aS)-2-(2,2,2-trifluoroethyl)octahydrocyclopenta[c]pyrrol-5-yl)ethoxy)-1H-indol-3-yl)oxetane-3-carboxamide] | 200 to 1000
10 | O=C(Nc1c[nH]c2ccc(CCOc3ccc(C(F)(F)F)cc3)cc12)C1CC(F)(F)C1 [Compound 388, 3,3-difluoro-N-(5-(2-(4-(trifluoromethyl)phenoxy)ethyl)-1H-indol-3-yl)cyclobutane-1-carboxamide] | 200 to 1000
11 | CCC(=O)Nc1c[nH]c2ccc(OCc3ccc(C(F)(F)F)cc3)cc12 [Compound 138, N-(5-((4-(trifluoromethyl)benzyl)oxy)-1H-indol-3-yl)propionamide] | 200 to 1000
12 | CC(=O)Nc1c[nH]c2ccc(OCC[C@H]3CC[C@H](C(F)(F)F)CC3)cc12 (single isomer, unassigned) [Compound 456, N-(5-(2-(trans-4-(trifluoromethyl)cyclohexyl)ethoxy)-1H-indol-3-yl)acetamide] | 200 to 1000
13 | CC(=O)Nc1c[nH]c2ccc(CCC3(c4ccc(C(F)(F)F)cc4)COC3)cc12 [Compound 508, N-(5-(2-(3-(4-(trifluoromethyl)phenyl)oxetan-3-yl)ethyl)-1H-indol-3-yl)acetamide] | 5000 to 100000
14 | O=C(Nc1c[nH]c2ccc(O[C@H]3C[C@H](c4ccc(C(F)(F)F)cc4)C3)cc12)C1(F)CC1 [Compound 489, l-fluoro-N-{5-[(1R,3R)-3-[4-(trifluoromethyl)phenyl]cyclobutoxy]-1H-indol-3-yl}cyclopropane-1-carboxamide] | 200 to 1000
15 | CC(=O)Nc1c[nH]c2cc(Br)c(OCCc3ccc(C(F)(F)F)cc3)cc12 [Compound 173, N-(6-bromo-5-(4-(trifluoromethyl)phenethoxy)-1H-indol-3-yl)acetamide] | 5000 to 100000
16 | CC(=O)Nc1c[nH]c2ccc(OCCn3ccc(C(F)(F)F)n3)cc12 [Compound 196, N-(5-(2-(3-(trifluoromethyl)-1H-pyrazol-1-yl)ethoxy)-1H-indol-3-yl)acetamide] | 5000 to 100000
17 | O=C(Nc1c[nH]c2ccc(O[C@H]3C[C@H](c4ccc(C(F)(F)F)cc4)C3)cc12)C1CC1(F)F (stereo partly drawn) [Compound 574, 2,2-difluoro-N-(5-(trans-3-(4-(trifluoromethyl)phenyl)cyclobutoxy)-1H-indol-3-yl)cyclopropane-1-carboxamide] | 40 to 200
18 | O=C(Nc1c[nH]c2ccc(OCCc3ccc(C(F)(F)F)cc3)cc12)C1COC1 [Compound 163, N-(5-(4-(trifluoromethyl)phenethoxy)-1H-indol-3-yl)oxetane-3-carboxamide] | 40 to 200
19 | COCC(=O)Nc1c[nH]c2ccc(OCCC3CCN(CC(F)(F)F)CC3)cc12 [Compound 117, 2-methoxy-N-(5-(2-(1-(2,2,2-trifluoroethyl)piperidin-4-yl)ethoxy)-1H-indol-3-yl)acetamide] | 200 to 1000
20 | CC1(C(=O)Nc2c[nH]c3ccc(OCC[C@@H]4C[C@@H]5CN(CC(F)(F)F)C[C@@H]5C4)cc23)CCOCC1 [Compound 161, 4-methyl-N-(5-(2-((3aR,5r,6aS)-2-(2,2,2-trifluoroethyl)octahydrocyclopenta[c]pyrrol-5-yl)ethoxy)-1H-indol-3-yl)tetrahydro-2H-pyran-4-carboxamide] | 40 to 200
21 | CC(=O)Nc1c[nH]c2ccc(OC3CCc4cc(C(F)(F)F)ccc4C3)cc12 (stereo not drawn) [Compound 436, N-(5-((6-(trifluoromethyl)-1,2,3,4-tetrahydronaphthalen-2-yl)oxy)-1H-indol-3-yl)acetamide] | 40 to 200
22 | O=C(Nc1c[nH]c2ccc(OCCc3ccc(C(F)(F)F)cc3)cc12)C1(C(F)(F)F)CC1 [Compound 185, 1-(trifluoromethyl)-N-(5-(4-(trifluoromethyl)phenethoxy)-1H-indol-3-yl)cyclopropane-1-carboxamide] | 200 to 1000

Now from value to compound:

Row | EC50 [nM] | SMILES
23 | 40 to 200 | O=C(Nc1c[nH]c2ccc(OCCc3ccc(C(F)(F)F)cc3)cc12)C1CN(CC(F)(F)F)C1 [Compound 210, 1-(2,2,2-trifluoroethyl)-N-(5-(4-(trifluoromethyl)phenethoxy)-1H-indol-3-yl)azetidine-3-carboxamide]
24 | 1000 to 5000 | CC(=O)Nc1c[nH]c2ccc(CCOc3cnc4c(C(F)(F)F)cccc4c3)cc12 [Compound 555, N-(5-(2-((8-(trifluoromethyl)quinolin-3-yl)oxy)ethyl)-1H-indol-3-yl)acetamide]
25 | 1000 to 5000 | N#C[C@H]1C[C@@H]1C(=O)Nc1c[nH]c2ccc(OCC[C@@H]3C[C@@H]4CN(CC(F)(F)F)C[C@@H]4C3)cc12 [Compound 340, (1S,2S)-2-cyano-N-(5-(2-((3aR,5r,6aS)-2-(2,2,2-trifluoroethyl)octahydrocyclopenta[c]pyrrol-5-yl)ethoxy)-1H-indol-3-yl)cyclopropane-1-carboxamide]
26 | 200 to 1000 | CC(=O)Nc1c[nH]c2ccc(OCC[C@H]3CC[C@@H](C(F)(F)F)CC3)cc12 (single isomer, unassigned) [Compound 454, N-(5-(2-(cis-4-(trifluoromethyl)cyclohexyl)ethoxy)-1H-indol-3-yl)acetamide]
27 | 5000 to 100000 | CC(=O)Nc1c[nH]c2ccc(OCCC3(O)CCC(F)(F)CC3)cc12 [Compound 278, N-(5-(2-(4,4-difluoro-1-hydroxycyclohexyl)ethoxy)-1H-indol-3-yl)acetamide]
28 | 1000 to 5000 | CC(=O)Nc1c[nH]c2ccc(CCOc3ccc(-c4ccncc4)cc3)cc12 [Compound 451, N-(5-{2-[4-(pyridin-4-yl)phenoxy]ethyl} -1H-indol-3-yl)acetamide]
29 | 200 to 1000 | CC[C@H](O)C(=O)Nc1c[nH]c2ccc(OCC[C@@H]3C[C@@H]4CN(CC(F)(F)F)C[C@@H]4C3)cc12 [Compound 521, (S)-2-hydroxy-N-(5-(2-((3aR,5r,6aS)-2-(2,2,2-trifluoroethyl)octahydrocyclopenta[c]pyrrol-5-yl)ethoxy)-1H-indol-3-yl)butanamide]
30 | 1000 to 5000 | C[C@]1(C(=O)Nc2c[nH]c3ccc(OCc4ccc(C(F)(F)F)cc4)cc23)C[C@H](O)C1 [Compound 415, trans-3-hydroxy-1-methyl-N-(5-((4-(trifluoromethyl)benzyl)oxy)-1H-indol-3-yl)cyclobutane-1-carboxamide]
31 | 200 to 1000 | CC(=O)Nc1c[nH]c2ccc(Cc3ccc(C(F)(F)F)cc3)cc12 [Compound 128, N-(5-(4-(trifluoromethyl)benzyl)-1H-indol-3-yl)acetamide]
32 | 1000 to 5000 | CC(=O)Nc1c[nH]c2ccc(OCCc3sc(C(F)(F)F)nc3C)cc12 [Compound 484, N-(5-(2-(4-methyl-2-(trifluoromethyl)thiazol-5-yl)ethoxy)-1H-indol-3-yl)acetamide]
33 | 200 to 1000 | CC(=O)Nc1c[nH]c2ccc(OCCC34CC(C(F)(F)F)(C3)C4)cc12 [Compound 474, N-(5-(2-(3-(trifluoromethyl)bicyclo[1.1.1]pentan-1-yl)ethoxy)-1H-indol-3-yl)acetamide]
34 | 5000 to 100000 | CC(=O)Nc1c[nH]c2ccc(CCOc3ccc4ncccc4c3)cc12 [Compound 526, N-(5-(2-(quinolin-6-yloxy)ethyl)-1H-indol-3-yl)acetamide]
35 | 1000 to 5000 | O=C(Nc1c[nH]c2ccc(OCCc3ccc(C(F)(F)F)nc3)cc12)C1COC1 [Compound 373, N-(5-(2-(6-(trifluoromethyl)pyridin-3-yl)ethoxy)-1H-indol-3-yl)oxetane-3-carboxamide]
36 | 40 to 200 | CC(C)(C)CC(=O)Nc1c[nH]c2ccc(OCCc3ccc(C(F)(F)F)cc3)cc12 [Compound 202, 3,3-dimethyl-N-(5-(4-(trifluoromethyl)phenethoxy)-1H-indol-3-yl)butanamide]
